Structures can show the parent of a compound that is named as a salt.
Legend:
human uPA = biological target: T1, human uPA (Homo sapiens, UniProt P00749); assay: Kinetic inhibition of human urokinase, Spectrozyme UK substrate, initial rates at 405 nm; assay type: biochemical; settings: for Ki: 0.1 M Tris, pH 8.8, 25°C, Spectrozyme UK 10 μM to 150 μM, read-out: Ki, dissociation constant for inhibition of human uPA; for fold improvement in Ki over compound 4d: compared with unsubstituted 4d
T1 construct: purchased Sigma/Aldrich, St. Louis, MO
Experimental: Human urokinase (Sigma/Aldrich, St. Louis, MO) and Spectrozyme UK (American Diagnostica, Stamford, CT) were used for the kinetic studies. Enzyme activity was routinely measured in 1 ml volumes of 0.1 M Tris, pH 8.8, Spectrozyme UK (10 μM to 150 μM) and 0.64 μg (3,770 units/mg protein) human urokinase. Reactions were monitored at 405 nm, 25°C, with a Perkin/Elmer Lambda S2 UV/vis spectrophotometer. Michaelis constants and Ki values were determined from initial rate data, measured at 8 to 10 substrate concentrations, by non-linear regression analysis with SigmaPlot's Enzyme Kinetics Module™ (Chicago, IL, USA).

melting point	Ki (human uPA)	fold improvement in Ki over compound 4d (human uPA)	type of inhibition of uPA (human uPA; kinetic studies)	Structure (SMILES)
126 to 128 °C	1800 ± 200 nM	–	–	O=c1oc(OCCBr)c(Cl)c2ccc([N+](=O)[O-])cc12 [Compound 4a, 3-(2-Bromoethoxy)-4-chloro-7-nitro-1H-isochromen-1-one]
131 to 134 °C	2400 ± 200 nM	4 fold	–	O=c1oc(OCCCBr)c(Cl)c2ccc([N+](=O)[O-])cc12 [Compound 4b, 3-(3-Bromopropoxy)-4-chloro-7-nitro-1H-isochromen-1-one]
81 to 82 °C	14000 ± 1000 nM	–	–	O=c1oc(OCCBr)c(Cl)c2ccccc12 [Compound 4c, 3-(2-Bromoethoxy)-4-chloro-1H-isochromen-1-one]
95 to 97 °C	9000 ± 1000 nM	–	simple competitive inhibition	O=c1oc(OCCCBr)c(Cl)c2ccccc12 [Compound 4d, 3-(3-Bromopropoxy)-4-chloro-1H-isochromen-1-one]
168 to 170 °C	33 ± 4 nM	–	–	Br.N=C(N)SCCOc1oc(=O)c2ccccc2c1Cl [Compound 5c, 2-[2-(4-Chloro-1-oxo-1H-isochromen-3-yloxy)ethyl]isothiourea hydrobromide]
159 to 163 °C	55 ± 3 nM	–	–	Br.N=C(N)SCCCOc1oc(=O)c2ccccc2c1Cl [Compound 5d, 2-[3-(4-Chloro-1-oxo-1H-isochromen-3-yloxy)propyl]isothiourea hydrobromide]
–	140 ± 20 nM	–	–	N=C(N)SCCCCOc1oc(=O)c2ccccc2c1Cl [Compound 5e, 2-[4-(4-Chloro-1-oxo-1H-isochromen-3-yloxy)butyl]isothiourea hydrobromide]
134 to 136 °C	12000 ± 1000 nM	–	–	Nc1ccc2c(Cl)c(OCCBr)oc(=O)c2c1 [Compound 6a, 7-Amino-3-(2-bromoethoxy)-4-chloro-1H-isochromen-1-one]
106 to 107 °C	9500 ± 1000 nM	–	–	Nc1ccc2c(Cl)c(OCCCBr)oc(=O)c2c1 [Compound 6b, 7-Amino-3-(3-bromopropoxy)-4-chloro-1H-isochromen-1-one]
–	20 ± 3 nM	–	–	N=C(N)SCCOc1oc(=O)c2cc(N)ccc2c1Cl [Compound 7a, 2-[2-(7-amino-4-chloro-1-oxo-1H-isochromen-3-yloxy)ethyl]isothiourea hydrobromide]
173 °C	38 ± 5 nM	–	–	Br.N=C(N)SCCCOc1oc(=O)c2cc(N)ccc2c1Cl [Compound 7b, 2-[3-(7-Amino-4-chloro-1-oxo-1H-isochromen-3-yloxy)propyl]isothiourea hydrobromide]
214 to 216 °C	1400 ± 200 nM	–	–	O=C(Nc1ccc2c(Cl)c(OCCBr)oc(=O)c2c1)c1ccccc1 [Compound 8a, N-[3-(2-Bromoethoxy)-4-chloro-1-oxo-1H-isochromen-7-yl]benzamide]
193 to 194 °C	34 ± 2 nM	300 fold	–	O=C(Nc1ccc2c(Cl)c(OCCCBr)oc(=O)c2c1)c1ccccc1 [Compound 8b, N-[3-(3-Bromopropoxy)-4-chloro-1-oxo-1H-isochromen-7-yl]benzamide]
173 to 175 °C	84 ± 7 nM	–	–	Br.N=C(N)SCCOc1oc(=O)c2cc(NC(=O)c3ccccc3)ccc2c1Cl [Compound 9a, 2-[2-(7-Benzamido-4-chloro-1-oxo-1H-isochromen-3-yloxy)ethyl]isothiourea hydrobromide]
203 to 204 °C	10 ± 8 nM	–	–	Br.N=C(N)SCCCOc1oc(=O)c2cc(NC(=O)c3ccccc3)ccc2c1Cl [Compound 9b, 2-[3-(7-Benzamido-4-chloro-1-oxo-1H-isochromen-3-yloxy]propyl)isothiourea hydrobromide]
95 to 97 °C	4200 ± 400 nM	–	–	O=c1oc(OCCBr)cc2ccc([N+](=O)[O-])cc12 [Compound 10a, 3-(2-Bromoethoxy)-7-nitro-1H-isochromen-1-one]
117 to 118 °C	4300 ± 300 nM	–	–	O=c1oc(OCCCBr)cc2ccc([N+](=O)[O-])cc12 [Compound 10b, 3-(3-Bromopropoxy)-7-nitro-1H-isochromen-1-one]
116 to 117 °C	14000 ± 2000 nM	–	–	O=C(c1c(OCCCBr)oc(=O)c2ccccc12)C(F)(F)F [Compound 10c, 3-(3-Bromopropoxy)-4-trifluoroacetyl-1H-isochromen-1-one]
> 280 °C	65000 ± 9000 nM	–	–	Nc1ccc2cc(OCCBr)oc(=O)c2c1 [Compound 11, 7-Amino-3-(2-bromoethoxy)-1H-isochromen-1-one]

Structure (SMILES)	melting point	Ki (human uPA)	fold improvement in Ki over compound 4d (human uPA)	type of inhibition of uPA (human uPA; kinetic studies)
O=c1oc(OCCCCBr)c(Cl)c2ccccc12 [Compound 4e, 3-(4-Bromobutoxy)-4-chloro-1H-isochromen-1-one]	75 to 77 °C	18000 ± 2000 nM	–	–
